Calls of active or inactive are those of the source. The rule behind the calls is not given here.

For experiment [1], the species on record is Mus musculus. Put plainly: Effect tested against murine sarcoma S-180 cells; Inactive. In kind it is functional, cell-based.
The species named for experiment [2] is Mus musculus. Description: Effect tested against murine leukemia L1210 cells; Inactive. The format is functional, cell-based.

Consider `Nc1ccnc2c1ccn2C1O[C@H](CO)[C@@H](O)[C@H]1O` (some centres not stated), for which the outcome in the experiment listed under Mus musculus [1] and in the experiment filed under Mus musculus [2] was inactive.
